From patent publication EP2468718A1, “Cabanillasin, a new antifungal compound, produced by entomopathogenic xenorhabdus cabanillasii” (Nosopharm, priority 2010, dated 2012)
Read-outs that look alike come from different tables or passages of the source.

How the values were obtained:
Format in all cases: cell-based
[1] = system: Rhizopus oryzae environemental strain; assay: Antifungal susceptibility testing, M38-A microdilution method (filamentous fungi); details: Rhizopus arrhizus, read-out: % of growth inhibition
Protocol: (§1) Cabanillasin activity was tested against different fungal human pathogens: ascomycetes yeasts (Candida albicans ATCC 90029, Candida Glabrata ATCC 90030, Candida krusei ATCC 6258 and Candida lusitaniae CBS 6936), basidiomycetes yeasts (Cryptococcus neoformans clinical strain), ascomycetes filamentous fungi (Aspergilus fumigatus clinical strain, Fusarium oxysporum clinical strain) and zygomycetes filamentous fungi (Rhizopus oryzae environemental strain) by the M38-A microdilution method with RPMI 1640 medium (RPMI 1640, MOPS 160 mM, glucose 18 g/L, pH 7) as recommended in the […]. The NCCLS M27-A2 broth microdilution method (NCCLS) was used when yeasts were tested.
(§2) Yeasts and filamentous inoculi were prepared on YPD medium (yeast extract 10 g/L, peptone 10 g/L and glucose 20 g/L) and Malt medium (malt extract 20 g/L) respectively. The densities of inoculi were adjusted by dilution in RPMI 1640 broth to a value ranged from 5.10^2 to 5.10^3 CFU/mL for yeasts isolates and 5.10^3 to 5.10^4 CFU/mL for filamentous fungi. Microdilution trays (96 U-bottom shaped) containing 190 µL fungal inoculum were added with 10 µL Cabanillasin solution (final concentration ranging from 50 to 0.098 mg/L for all fungi). After inoculation of the trays, all microdilution trays were incubated at 35°C in ambient air. The culture absorbance was measured at 600 nm, 24 h and 48 h after the beginning of the experiments for the yeasts and 48 h and 72 h after the beginning of the experiments for filamentous fungi and Cryptococcus neoformans. The activity results correspond to a percentage of growth inhibition ((1-Abs600 nm culture with Cabanillasin)/ Abs600 nm culture without Cabanillasin) x 100.
(§3) The IC50 value is the concentration at which inhibition of growth is equal to 50%. MICs for Candida species were determined at 24 h and 48 h and corresponded to 100% of growth inhibition. Amphotericin B was provided as standard (final concentration ranging from 16 to 0.03 mg/L for all fungi). Experiments were done in duplicate.

[2] = system: Fusarium oxysporum clinical strain; assay: as above; details: read-out: % of growth inhibition
Protocol: as §1, §2, §3

[3] = system: Candida albicans ATCC 90029; assay: Antifungal susceptibility testing, NCCLS M27-A2 broth microdilution (yeasts); details: read-out: % of growth inhibition; for inhibition at 0.03 µg/mL: ATCC90029, 0.03 µg/mL; for inhibition at 0.06 µg/mL: ATCC90029, 0.06 µg/mL; for inhibition at 0.12 µg/mL: ATCC90029, 0.12 µg/mL; for inhibition at 0.25 µg/mL: ATCC90029, 0.25 µg/mL; for inhibition at 0.5 µg/mL: ATCC90029, 0.5 µg/mL; for inhibition at 1 µg/mL: ATCC90029, 1 µg/mL; for inhibition at 2 µg/mL: ATCC90029, 2 µg/mL; for inhibition at 4 µg/mL: ATCC90029, 4 µg/mL; for inhibition at 8 µg/mL: ATCC90029, 8 µg/mL; for inhibition at 16 µg/mL: ATCC90029, 16 µg/mL
Protocol: as §1, §2, §3

Candida krusei ATCC 6258 = assay: as above; details: Pichia kudriavzevii, ATCC6258, read-out: % of growth inhibition
Protocol: as §1, §2, §3

[4] = system: Candida Glabrata ATCC 90030; assay: as above; details: Nakaseomyces glabratus, ATCC90030, read-out: % of growth inhibition
Protocol: as §1, §2, §3

## C[C@@H]1[C@H](O)[C@@H](C)/C=C/C=C/C=C/C=C/C=C/C=C/C=C/[C@H](O[C@@H]2O[C@H](C)[C@@H](O)[C@H](N)[C@@H]2O)C[C@@H]2O[C@](O)(C[C@@H](O)C[C@@H](O)[C@H](O)CC[C@@H](O)C[C@@H](O)CC(=O)O[C@H]1C)C[C@H](O)[C@H]2C(=O)O [Amphotericin B, reference compound]
[1]; 48 h incubation
  inhibition at 0.03 µg/mL: 26.7%
  inhibition at 0.06 µg/mL: 35%
  inhibition at 0.12 µg/mL: 22%
  inhibition at 0.25 µg/mL: 43.9%
  inhibition at 0.5 µg/mL: 47.4%
  inhibition at 1 µg/mL: 92.2%
  inhibition at 2 µg/mL: 100%
  inhibition at 4 µg/mL: 100%
  inhibition at 8 µg/mL: 100%
  inhibition at 16 µg/mL: 100%
[1]; 72 h incubation
  inhibition at 0.03 µg/mL: 0%
  inhibition at 0.06 µg/mL: 0%
  inhibition at 0.12 µg/mL: 0%
  inhibition at 0.25 µg/mL: 12%
  inhibition at 0.5 µg/mL: 62.1%
  inhibition at 1 µg/mL: 66%
  inhibition at 2 µg/mL: 77.4%
  inhibition at 4 µg/mL: 100%
  inhibition at 8 µg/mL: 100%
  inhibition at 16 µg/mL: 100%
[2]; 48 h incubation
  inhibition at 0.03 µg/mL: 14%
  inhibition at 0.06 µg/mL: 26.3%
  inhibition at 0.12 µg/mL: 39.8%
  inhibition at 0.25 µg/mL: 65.2%
  inhibition at 0.5 µg/mL: 100%
  inhibition at 1 µg/mL: 100%
  inhibition at 2 µg/mL: 100%
  inhibition at 4 µg/mL: 100%
  inhibition at 8 µg/mL: 100%
  inhibition at 16 µg/mL: 100%
[2]; 72 h incubation
  inhibition at 0.03 µg/mL: 0%
  inhibition at 0.06 µg/mL: 0%
  inhibition at 0.12 µg/mL: 24.6%
  inhibition at 0.25 µg/mL: 49.8%
  inhibition at 0.5 µg/mL: 90.2%
  inhibition at 1 µg/mL: 100%
  inhibition at 2 µg/mL: 100%
  inhibition at 4 µg/mL: 100%
  inhibition at 8 µg/mL: 100%
  inhibition at 16 µg/mL: 100%
[3]; 24 h incubation
  inhibition at 0.03 µg/mL: 30.3%
  inhibition at 0.06 µg/mL: 56.7%
  inhibition at 0.12 µg/mL: 95.2%
  inhibition at 0.25 µg/mL: 100%
  inhibition at 0.5 µg/mL: 100%
  inhibition at 1 µg/mL: 100%
  inhibition at 2 µg/mL: 100%
  inhibition at 4 µg/mL: 100%
  inhibition at 8 µg/mL: 100%
  inhibition at 16 µg/mL: 100%
[3]; 48 h incubation
  inhibition at 0.03 µg/mL: 17%
  inhibition at 0.06 µg/mL: 32%
  inhibition at 0.12 µg/mL: 70%
  inhibition at 0.25 µg/mL: 100%
  inhibition at 0.5 µg/mL: 100%
  inhibition at 1 µg/mL: 100%
  inhibition at 2 µg/mL: 100%
  inhibition at 4 µg/mL: 100%
  inhibition at 8 µg/mL: 100%
  inhibition at 16 µg/mL: 100%
Candida krusei ATCC 6258; 24 h incubation
  inhibition at 0.03 µg/mL: 0%
  inhibition at 0.06 µg/mL: 48.4%
  inhibition at 0.12 µg/mL: 100%
  inhibition at 0.25 µg/mL: 100%
  inhibition at 0.5 µg/mL: 100%
  inhibition at 1 µg/mL: 100%
  inhibition at 2 µg/mL: 100%
  inhibition at 4 µg/mL: 100%
  inhibition at 8 µg/mL: 100%
  inhibition at 16 µg/mL: 100%
Candida krusei ATCC 6258; 48 h incubation
  inhibition at 0.03 µg/mL: 25%
  inhibition at 0.06 µg/mL: 48%
  inhibition at 0.12 µg/mL: 76.7%
  inhibition at 0.25 µg/mL: 100%
  inhibition at 0.5 µg/mL: 100%
  inhibition at 1 µg/mL: 100%
  inhibition at 2 µg/mL: 100%
  inhibition at 4 µg/mL: 100%
  inhibition at 8 µg/mL: 100%
  inhibition at 16 µg/mL: 100%
[4]; 24 h incubation
  inhibition at 0.03 µg/mL: 16.8%
  inhibition at 0.06 µg/mL: 71.3%
  inhibition at 0.12 µg/mL: 100%
  inhibition at 0.25 µg/mL: 100%
  inhibition at 0.5 µg/mL: 100%
  inhibition at 1 µg/mL: 100%
  inhibition at 2 µg/mL: 100%
  inhibition at 4 µg/mL: 100%
  inhibition at 8 µg/mL: 100%
  inhibition at 16 µg/mL: 100%
[4]; 48 h incubation
  inhibition at 0.03 µg/mL: 25%
  inhibition at 0.06 µg/mL: 23%
  inhibition at 0.12 µg/mL: 68%
  inhibition at 0.25 µg/mL: 100%
  inhibition at 0.5 µg/mL: 100%
  inhibition at 1 µg/mL: 100%
  inhibition at 2 µg/mL: 100%
  inhibition at 4 µg/mL: 100%
  inhibition at 8 µg/mL: 100%
  inhibition at 16 µg/mL: 100%
